Data: article PMC2323292, “Immunodominant Tuberculosis CD8 Antigens Preferentially Restricted by HLA-B” (PLoS Pathogens, 2007)
Like-named read-outs stand apart in the source and are kept apart here.

Experiments:
CD8+ T cells [1] = experiment: Ex vivo IFN-γ ELISPOT, CD8+ T cells with peptide-pulsed autologous DCs; format: cell-based, human; details: donor 443 (LTBI), linear regression
CD8+ T cells [2] = details: donor 160; ex vivo, autologous DCs pulsed with epitope; clones published previously ref 17; cited from earlier work
Source text: Table 3 Summary of CD8+ T Cell Epitopes Identified | column: Epitope-Specific T Cells^a

Sequence	Epitope-Specific T Cells (CD8+ T cells [1])	Epitope-Specific T Cells (CD8+ T cells [2])
ELPQWLSANR	<10 IFN-γ spot forming units per 2	
RADEEQQQAL		120 IFN-γ spot forming units per 2
